{"source": "the supplement of paper PMC10307832"}
{"compound": "Cc1ccc(Nc2nccc(N(C)c3ccc4c(C)n(C)nc4c3)n2)cc1S(N)(=O)=O [Pazopanib] + CC1(C)CCC(c2ccc(Cl)cc2)=C(CN2CCN(c3ccc(C(=O)NS(=O)(=O)c4ccc(N[C@H](CCN5CCOCC5)CSc5ccccc5)c(S(=O)(=O)C(F)(F)F)c4)cc3)CC2)C1 [Navitoclax] (partner 0.5 µM)", "experiment": "relative viability (nuclei count vs DMSO), 5 days (fraction); higher = more cells survive", "settings": "first compound 0.01 µM", "summary_of_the_method": "(§1)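 The day after seeding in 1536-well plates, lung cancer cell lines were treated by pin tool with a single drug, or with a fixed anchor-drug dose together with five library-drug doses (not always all listed) in √10 steps. After 5 days, a combined fix-and-stain solution (final 0.05% Triton X-100, 1% formaldehyde, 1 ug/ml Hoechst) was added. Nuclei counted on 4× images gave relative viability as treated counts over vehicle counts, reported as the median of duplicate plates.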"}
{"cell line": "NCI-H1734", "relative viability": 0.796}
{"cell line": "NCI-H2405", "relative viability": 0.903}
{"cell line": "SW 1573", "relative viability": 1.16}
{"cell line": "201T", "relative viability": 1.21}
{"cell line": "NCI-H1915", "relative viability": 0.821}
{"cell line": "HCC-827", "relative viability": 1.06}
{"cell line": "LXF-289", "relative viability": 0.994}
{"cell line": "NCI-H23", "relative viability": 0.899}
{"cell line": "CAL-12T", "relative viability": 1.26}
{"cell line": "NCI-H1651", "relative viability": 1.1}
{"cell line": "EPLC-272H", "relative viability": 1.09}
{"cell line": "NCI-H2228", "relative viability": 0.847}
{"cell line": "NCI-H322M", "relative viability": 1.03}
{"cell line": "NCI-H1437", "relative viability": 1.11}
{"cell line": "NCI-H1755", "relative viability": 0.852}
{"cell line": "NCI-H2023", "relative viability": 0.972}
{"cell line": "HCC-15", "relative viability": 0.698}
{"cell line": "NCI-H1944", "relative viability": 0.942}
{"cell line": "PC-3 [JPC-3]", "relative viability": 0.762}
{"cell line": "EKVX", "relative viability": 0.834}
{"cell line": "LC-2-ad", "relative viability": 0.411}
{"compound": "Cc1ccc(Nc2nccc(N(C)c3ccc4c(C)n(C)nc4c3)n2)cc1S(N)(=O)=O [Pazopanib] + CC1(C)CCC(c2ccc(Cl)cc2)=C(CN2CCN(c3ccc(C(=O)NS(=O)(=O)c4ccc(N[C@H](CCN5CCOCC5)CSc5ccccc5)c(S(=O)(=O)C(F)(F)F)c4)cc3)CC2)C1 [Navitoclax] (partner 0.5 µM)", "experiment": "relative viability (nuclei count vs DMSO), 5 days (fraction); higher = more cells survive", "settings": "first compound 0.03162 µM", "summary_of_the_method": "as §1"}
{"cell line": "LU99A", "relative viability": 0.819}
{"cell line": "BEN", "relative viability": 0.0679}
{"cell line": "HARA", "relative viability": 1.03}
{"cell line": "HCC-78", "relative viability": 0.813}
{"cell line": "NCI-H441", "relative viability": 0.493}
{"cell line": "LCLC-97TM1", "relative viability": 0.365}
{"cell line": "NCI-H2009", "relative viability": 1.18}
{"cell line": "A-427", "relative viability": 1.07}
{"cell line": "NCI-H460", "relative viability": 1.19}
{"cell line": "NCI-H1734", "relative viability": 0.795}
{"cell line": "NCI-H520", "relative viability": 1.18}
{"cell line": "NCI-H2405", "relative viability": 0.985}
{"cell line": "SW 1573", "relative viability": 1.06}
{"cell line": "NCI-H1793", "relative viability": 0.421}
{"cell line": "201T", "relative viability": 1.22}
{"cell line": "NCI-H1915", "relative viability": 0.782}
{"cell line": "HCC-827", "relative viability": 1.02}
{"cell line": "LXF-289", "relative viability": 1.03}
{"cell line": "NCI-H23", "relative viability": 0.843}
{"cell line": "CAL-12T", "relative viability": 1.15}
{"cell line": "NCI-H1651", "relative viability": 1.16}
{"cell line": "EPLC-272H", "relative viability": 1.09}
{"cell line": "NCI-H2228", "relative viability": 1.1}
{"cell line": "NCI-H1355", "relative viability": 0.899}
{"cell line": "NCI-H322M", "relative viability": 1.19}
{"cell line": "NCI-H1437", "relative viability": 1.06}
{"cell line": "NCI-H1755", "relative viability": 0.937}
{"cell line": "NCI-H2023", "relative viability": 1}
{"cell line": "HCC-15", "relative viability": 0.706}
{"cell line": "NCI-H1944", "relative viability": 0.997}
{"cell line": "PC-3 [JPC-3]", "relative viability": 0.794}
{"cell line": "EKVX", "relative viability": 0.926}
{"cell line": "LC-2-ad", "relative viability": 0.48}
{"compound": "Cc1ccc(Nc2nccc(N(C)c3ccc4c(C)n(C)nc4c3)n2)cc1S(N)(=O)=O [Pazopanib] + CC1(C)CCC(c2ccc(Cl)cc2)=C(CN2CCN(c3ccc(C(=O)NS(=O)(=O)c4ccc(N[C@H](CCN5CCOCC5)CSc5ccccc5)c(S(=O)(=O)C(F)(F)F)c4)cc3)CC2)C1 [Navitoclax] (partner 0.5 µM)", "experiment": "relative viability (nuclei count vs DMSO), 5 days (fraction); higher = more cells survive", "settings": "first compound 0.1 µM", "summary_of_the_method": "as §1"}
{"cell line": "LU99A", "relative viability": 0.769}
{"cell line": "BEN", "relative viability": 0.0737}
{"cell line": "HARA", "relative viability": 1.13}
{"cell line": "HCC-78", "relative viability": 0.796}
{"cell line": "NCI-H441", "relative viability": 1.12}
{"cell line": "LCLC-97TM1", "relative viability": 0.427}
{"cell line": "NCI-H2009", "relative viability": 1.2}
{"cell line": "A-427", "relative viability": 0.977}
{"cell line": "NCI-H460", "relative viability": 1.34}
{"cell line": "NCI-H1734", "relative viability": 0.854}
{"cell line": "NCI-H520", "relative viability": 0.955}
{"cell line": "NCI-H2405", "relative viability": 1.05}
{"cell line": "SW 1573", "relative viability": 1.02}
{"cell line": "NCI-H1793", "relative viability": 0.387}
{"cell line": "201T", "relative viability": 1.26}
{"cell line": "NCI-H1915", "relative viability": 0.78}
{"cell line": "HCC-827", "relative viability": 1.11}
{"cell line": "LXF-289", "relative viability": 0.95}
{"cell line": "NCI-H23", "relative viability": 1.16}
{"cell line": "CAL-12T", "relative viability": 1.25}
{"cell line": "NCI-H1651", "relative viability": 1.17}
{"cell line": "EPLC-272H", "relative viability": 1.21}
{"cell line": "NCI-H2228", "relative viability": 1.03}
{"cell line": "NCI-H1355", "relative viability": 1.09}
{"cell line": "NCI-H322M", "relative viability": 1.27}
{"cell line": "NCI-H1437", "relative viability": 1.07}
{"cell line": "NCI-H1755", "relative viability": 1.01}
{"cell line": "NCI-H2023", "relative viability": 0.98}
{"cell line": "HCC-15", "relative viability": 0.743}
{"cell line": "NCI-H1944", "relative viability": 1.09}
{"cell line": "PC-3 [JPC-3]", "relative viability": 0.904}
{"cell line": "EKVX", "relative viability": 0.97}
{"cell line": "LC-2-ad", "relative viability": 0.588}
{"compound": "Cc1ccc(Nc2nccc(N(C)c3ccc4c(C)n(C)nc4c3)n2)cc1S(N)(=O)=O [Pazopanib] + CC1(C)CCC(c2ccc(Cl)cc2)=C(CN2CCN(c3ccc(C(=O)NS(=O)(=O)c4ccc(N[C@H](CCN5CCOCC5)CSc5ccccc5)c(S(=O)(=O)C(F)(F)F)c4)cc3)CC2)C1 [Navitoclax] (partner 0.5 µM)", "experiment": "relative viability (nuclei count vs DMSO), 5 days (fraction); higher = more cells survive", "settings": "first compound 0.3162 µM", "summary_of_the_method": "as §1"}
{"cell line": "LU99A", "relative viability": 0.773}
{"cell line": "BEN", "relative viability": 0.0724}
{"cell line": "HARA", "relative viability": 1.15}
{"cell line": "HCC-78", "relative viability": 0.828}
{"cell line": "NCI-H441", "relative viability": 0.553}
{"cell line": "LCLC-97TM1", "relative viability": 0.547}
{"cell line": "NCI-H2009", "relative viability": 1.11}
{"cell line": "A-427", "relative viability": 0.941}
{"cell line": "NCI-H460", "relative viability": 1.16}
{"cell line": "NCI-H1734", "relative viability": 0.875}
{"cell line": "NCI-H520", "relative viability": 1.05}
{"cell line": "NCI-H2405", "relative viability": 1.27}
{"cell line": "SW 1573", "relative viability": 1.2}
{"cell line": "NCI-H1793", "relative viability": 0.463}
{"cell line": "201T", "relative viability": 1.18}
{"cell line": "NCI-H1915", "relative viability": 0.768}
{"cell line": "HCC-827", "relative viability": 1.07}
{"cell line": "LXF-289", "relative viability": 0.934}
{"cell line": "NCI-H23", "relative viability": 1.02}
{"cell line": "CAL-12T", "relative viability": 1.27}
{"cell line": "NCI-H1651", "relative viability": 1.12}
{"cell line": "EPLC-272H", "relative viability": 1.16}
{"cell line": "NCI-H2228", "relative viability": 0.98}
{"cell line": "NCI-H1355", "relative viability": 1.07}
{"cell line": "NCI-H322M", "relative viability": 1.36}
{"cell line": "NCI-H1437", "relative viability": 0.985}
{"cell line": "NCI-H1755", "relative viability": 1}
{"cell line": "NCI-H2023", "relative viability": 1.01}
{"cell line": "HCC-15", "relative viability": 0.713}
{"cell line": "NCI-H1944", "relative viability": 1.05}
{"cell line": "PC-3 [JPC-3]", "relative viability": 0.723}
{"cell line": "EKVX", "relative viability": 0.921}
{"cell line": "LC-2-ad", "relative viability": 0.485}
{"compound": "Cc1ccc(Nc2nccc(N(C)c3ccc4c(C)n(C)nc4c3)n2)cc1S(N)(=O)=O [Pazopanib] + CC1(C)CCC(c2ccc(Cl)cc2)=C(CN2CCN(c3ccc(C(=O)NS(=O)(=O)c4ccc(N[C@H](CCN5CCOCC5)CSc5ccccc5)c(S(=O)(=O)C(F)(F)F)c4)cc3)CC2)C1 [Navitoclax] (partner 0.5 µM)", "experiment": "relative viability (nuclei count vs DMSO), 5 days (fraction); higher = more cells survive", "settings": "first compound 1 µM", "summary_of_the_method": "as §1"}
{"cell line": "LU99A", "relative viability": 0.843}
{"cell line": "BEN", "relative viability": 0.0586}
{"cell line": "HARA", "relative viability": 1.2}
{"cell line": "HCC-78", "relative viability": 0.694}
{"cell line": "NCI-H441", "relative viability": 0.765}
{"cell line": "LCLC-97TM1", "relative viability": 0.655}
{"cell line": "NCI-H2009", "relative viability": 0.979}
{"cell line": "A-427", "relative viability": 1.04}
{"cell line": "NCI-H460", "relative viability": 1.15}
{"cell line": "NCI-H1734", "relative viability": 0.901}
{"cell line": "NCI-H520", "relative viability": 0.98}
{"cell line": "NCI-H2405", "relative viability": 1.07}
{"cell line": "SW 1573", "relative viability": 1.28}
{"cell line": "NCI-H1793", "relative viability": 0.542}
{"cell line": "201T", "relative viability": 1.17}
{"cell line": "NCI-H1915", "relative viability": 0.729}
{"cell line": "HCC-827", "relative viability": 0.98}
{"cell line": "LXF-289", "relative viability": 0.991}
{"cell line": "NCI-H23", "relative viability": 1.06}
{"cell line": "CAL-12T", "relative viability": 1.34}
{"cell line": "NCI-H1651", "relative viability": 1.16}
{"cell line": "EPLC-272H", "relative viability": 1.1}
{"cell line": "NCI-H2228", "relative viability": 0.913}
{"cell line": "NCI-H1355", "relative viability": 0.979}
{"cell line": "NCI-H322M", "relative viability": 1.24}
{"cell line": "NCI-H1437", "relative viability": 1.08}
{"cell line": "NCI-H1755", "relative viability": 0.991}
{"cell line": "NCI-H2023", "relative viability": 1.01}
{"cell line": "HCC-15", "relative viability": 0.815}
{"cell line": "NCI-H1944", "relative viability": 1.08}
{"cell line": "PC-3 [JPC-3]", "relative viability": 0.793}
{"cell line": "EKVX", "relative viability": 1.02}
{"cell line": "LC-2-ad", "relative viability": 0.335}
